Results as given in patent US12290596B2, “Compositions and methods for the treatment of opioid overdose” (priority 2021, dated 2025).

Test: Two-period crossover pharmacokinetics of nalmefene 3 mg IN vs 1.0 mg IM (Example 12)
Details: for AUC(0-inf): AUCinf; for half-life: T1/2, Treatment B: IM 1.0 mg nalmefene hydrochloride; for Vd/F: Vz/F
[1] = Treatment A: 3.0 mg nalmefene hydrochloride IN, plasma, Max, n 66
[2] = Treatment A: 3.0 mg nalmefene hydrochloride IN, plasma, Min, n 66
[3] = Treatment B: 1.0 mg nalmefene IM (gluteal muscle), plasma, Max, n 68
[4] = Treatment B: 1.0 mg nalmefene IM (gluteal muscle), plasma, Min, n 68
[5] = Treatment B: IM 1.0 mg nalmefene hydrochloride, plasma, Geo. Mean, n=68
[6] = Treatment B: IM 1.0 mg nalmefene hydrochloride, plasma, Max, n=68
[7] = Treatment B: IM 1.0 mg nalmefene hydrochloride, plasma, Mean, n=68
[8] = Treatment B: IM 1.0 mg nalmefene hydrochloride, plasma, Median, n=68
[9] = Treatment B: IM 1.0 mg nalmefene hydrochloride, plasma, Min, n=68
[10] = human, plasma, im, 1 mg, GeoMean, Treatment B 1.0 mg IM (Ref)
[11] = human, plasma, im, 1 mg, Treatment B: IM 1.0 mg nalmefene hydrochloride, plasma, Geo. Mean, n=68
[12] = human, plasma, im, 1 mg, Treatment B: IM 1.0 mg nalmefene hydrochloride, plasma, Median, n=68
[13] = human, plasma, im, 1 mg, Treatment B: IM 1.0 mg nalmefene hydrochloride, plasma, Mean, n=68
[14] = human, plasma, intramuscular, 1 mg, Mean plasma concentration, Treatment B 1.0 mg IM, […]

C=C1CC[C@@]2(O)[C@H]3Cc4ccc(O)c5c4[C@@]2(CCN3CC2CC2)[C@H]1O5 [Nalmefene, 17-cyclopropylmethyl-4,5α-epoxy-6-methylenemorphinan-3,14-diol]
Plasma concentrations compared to an intramuscular injection (3 mg IN vs 1.0 mg IM, p<0.0001): significantly higher plasma concentrations | AUC0-5 min [1]: 0.588 ng·h/mL | AUC0-10 min [1]: 2.78 ng·h/mL | AUC0-15 min [1]: 5.03 ng·h/mL | AUC0-20 min [1]: 6.79 ng·h/mL | AUC0-30 min [1]: 9.16 ng·h/mL | AUC0-[…] [1]: 0.155 ng·h/mL | AUC0-10 min [2]: 0.0815 ng·h/mL | AUC0-15 min [2]: 0.196 ng·h/mL | AUC0-30 min [2]: 0.802 ng·h/mL | AUC0-10 min [3]: 0.631 ng·h/mL | AUC0-15 min [3]: 1.05 ng·h/mL | AUC0-20 min [3]: 1.33 ng·h/mL | AUC0-30 min [3]: 1.77 ng·h/mL | AUC0-[…] [3]: 0.0249 ng·h/mL | AUC0-15 min [4]: 0.0218 ng·h/mL | AUC0-20 min [4]: 0.0402 ng·h/mL | AUC0-30 min [4]: 0.0845 ng·h/mL | AUCExtrap [5]: 3.94% | CL/F [5]: 59.6 L/h | Kel [5]: 0.0667 h⁻¹ | Tlast [5]: 48.0 h | AUCExtrap [6]: 13.3% | AUClast [6]: 24.2 ng·h/mL | CL/F [6]: 91.8 L/h | Kel [6]: 0.0968 h⁻¹ | AUCExtrap [7]: 4.50% | CL/F [7]: 60.7 L/h | Kel [7]: 0.0677 h⁻¹ | Tlast [7]: 48.0 h | AUCExtrap [8]: 3.86% | CL/F [8]: 58.7 L/h | Kel [8]: 0.0695 h⁻¹ | Tlast [8]: 48.0 h | AUCExtrap [9]: 1.13% | AUClast [9]: 10.5 ng·h/mL | CL/F [9]: 40.0 L/h | Kel [9]: 0.0394 h⁻¹ | Tlast [9]: 48.0 h | AUC(0-t) (human, plasma, im, 1 mg, AUC0-5 min, GeoMean, Treatment B 1.0 mg IM (Ref)): 0.01 ng·h/mL | AUC(0-t) (human, plasma, im, 1 mg, AUC0-5 min, Treatment B: 1.0 mg nalmefene IM (gluteal muscle), plasma, Geo. Mean, n 68): 0.0102 ng·h/mL | AUC(0-t) (human, plasma, im, 1 mg, AUC0-5 min, Treatment B: 1.0 mg nalmefene IM (gluteal muscle), plasma, Mean, n 68): 0.0181 ng·h/mL | AUC(0-t) (human, plasma, im, 1 mg, AUC0-10 min, GeoMean, Treatment B 1.0 mg IM (Ref)): 0.064 ng·h/mL | AUC(0-t) (human, plasma, im, 1 mg, AUC0-10 min, Treatment B: 1.0 mg nalmefene IM (gluteal muscle), plasma, Geo. Mean, n 68): 0.0639 ng·h/mL | AUC(0-t) (human, plasma, im, 1 mg, AUC0-10 min, Treatment B: 1.0 mg nalmefene IM (gluteal muscle), plasma, Mean, n 68): 0.0994 ng·h/mL | AUC(0-t) (human, plasma, im, 1 mg, AUC0-10 min, Treatment B: 1.0 mg nalmefene IM (gluteal muscle), plasma, Median, n 68): 0.0583 ng·h/mL | AUC(0-t) (human, plasma, im, 1 mg, AUC0-15 min, GeoMean, Treatment B 1.0 mg IM (Ref)): 0.142 ng·h/mL | AUC(0-t) (human, plasma, im, 1 mg, AUC0-15 min, Treatment B: 1.0 mg nalmefene IM (gluteal muscle), plasma, Geo. Mean, n 68): 0.142 ng·h/mL | AUC(0-t) (human, plasma, im, 1 mg, AUC0-15 min, Treatment B: 1.0 mg nalmefene IM (gluteal muscle), plasma, Mean, n 68): 0.2 ng·h/mL | AUC(0-t) (human, plasma, im, 1 mg, AUC0-15 min, Treatment B: 1.0 mg nalmefene IM (gluteal muscle), plasma, Median, n 68): 0.143 ng·h/mL | AUC(0-t) (human, plasma, im, 1 mg, AUC0-20 min, GeoMean, Treatment B 1.0 mg IM (Ref)): 0.228 ng·h/mL | AUC(0-t) (human, plasma, im, 1 mg, AUC0-20 min, Treatment B: 1.0 mg nalmefene IM (gluteal muscle), plasma, Geo. Mean, n 68): 0.228 ng·h/mL | AUC(0-t) (human, plasma, im, 1 mg, AUC0-20 min, Treatment B: 1.0 mg nalmefene IM (gluteal muscle), plasma, Mean, n 68): 0.299 ng·h/mL | AUC(0-t) (human, plasma, im, 1 mg, AUC0-20 min, Treatment B: 1.0 mg nalmefene IM (gluteal muscle), plasma, Median, n 68): 0.228 ng·h/mL | AUC(0-t) (human, plasma, im, 1 mg, AUC0-30 min, GeoMean, Treatment B 1.0 mg IM (Ref)): 0.405 ng·h/mL | AUC(0-t) (human, plasma, im, 1 mg, AUC0-30 min, Treatment B: 1.0 mg nalmefene IM (gluteal muscle), plasma, Geo. Mean, n 68): 0.405 ng·h/mL | AUC(0-t) (human, plasma, im, 1 mg, AUC0-30 min, Treatment B: 1.0 mg nalmefene IM (gluteal muscle), plasma, Mean, n 68): 0.491 ng·h/mL | AUC(0-t) (human, plasma, im, 1 mg, AUC0-30 min, Treatment B: 1.0 mg nalmefene IM (gluteal muscle), plasma, Median, n 68): 0.389 ng·h/mL | AUC(0-t) (human, plasma, im, 1 mg, AUCLast, GeoMean, Treatment B 1.0 mg IM (Ref)): 16 ng·h/mL | AUC(0-inf) [10]: 16.8 ng·h/mL | AUC(0-inf) [11]: 16.8 ng·h/mL | AUC(0-inf) [12]: 17 ng·h/mL | AUC(0-t) (human, plasma, im, 1 mg, AUClast, Treatment B: IM 1.0 mg nalmefene hydrochloride, plasma, Geo. Mean, n=68): 16 ng·h/mL | AUC(0-t) (human, plasma, im, 1 mg, AUClast, Treatment B: IM 1.0 mg nalmefene hydrochloride, plasma, Mean, n=68): 16.3 ng·h/mL | AUC(0-t) (human, plasma, im, 1 mg, AUClast, Treatment B: IM 1.0 mg nalmefene hydrochloride, plasma, Median, n=68): 15.9 ng·h/mL | Cmax [10]: 1.5 ng/mL | Cmax [11]: 1.5 ng/mL | Cmax [13]: 1.77 ng/mL | Cmax [12]: 1.52 ng/mL | half-life (human, plasma, im, 1 mg, plasma, Geo. Mean, n=68): 10.4 h | half-life (human, plasma, im, 1 mg, plasma, Mean, n=68): 10.6 h | half-life (human, plasma, im, 1 mg, plasma, Median, n=68): 9.98 h | Tmax (human, plasma, im, 1 mg, Tmax, Treatment B: IM 1.0 mg nalmefene hydrochloride, plasma, Geo. Mean, n=68): 0.603 h | Vd/F [11]: 894 L | Vd/F [13]: 916 L | concentration at 0 h (human, plasma, intramuscular, 1 mg, Mean plasma concentration, Treatment B 1.0 mg IM): 0.00352 ng/mL | concentration at 0.5 h (human, plasma, intramuscular, 1 mg, Mean plasma concentration, Treatment B 1.0 mg IM, 0.500 h): 1.11 ng/mL | concentration at 2 h (human, plasma, intramuscular, 1 mg, Mean plasma concentration, Treatment B 1.0 mg IM, 2.00 h): 0.972 ng/mL | concentration at 3 h (human, plasma, intramuscular, 1 mg, Mean plasma concentration, Treatment B 1.0 mg IM, 3.00 h): 0.896 ng/mL | concentration at 4 h (human, plasma, intramuscular, 1 mg, Mean plasma concentration, Treatment B 1.0 mg IM, 4.00 h): 0.824 ng/mL | concentration at 6 h (human, plasma, intramuscular, 1 mg, Mean plasma concentration, Treatment B 1.0 mg IM, 6.00 h): 0.688 ng/mL | concentration at 8 h (human, plasma, intramuscular, 1 mg, Mean plasma concentration, Treatment B 1.0 mg IM, 8.00 h): 0.67 ng/mL | concentration at 36 h (human, plasma, intramuscular, 1 mg, Mean plasma concentration, Treatment B 1.0 mg IM, 36.0 h): 0.0968 ng/mL | concentration at 12 h [14]: 0.538 ng/mL | concentration at 18 h [14]: 0.36 ng/mL | concentration at 24 h [14]: 0.223 ng/mL | concentration at 48 h [14]: 0.0491 ng/mL | concentration at 0 h (human, plasma, intramuscular, 1 mg, Median plasma concentration, Treatment B 1.0 mg IM): 0 ng/mL
